Data as given in US20150291598A1 (NOVARTIS AG, priority 2012, published 2015).

Each compound was assayed on P. falciparum (NF54 or 3D7 strain) (assay: Assay for P. falciparum proliferation in infected human blood cells (SYBR Green)). Details: NF54 or 3D7 infected human erythrocytes, 72 hours; read-out: EC50 (nM), inhibitory efficacy in delaying P. falciparum proliferation in infected human blood cells.
Format: cell-based, Plasmodium falciparum
How it was run: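 Infected erythrocytes (NF54 or 3D7; final 2.5% hematocrit, 0.3% parasitemia) were incubated with compounds for 72 h at 37 °C in low oxygen (3% O2, 4% CO2, 93% N2).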

SMILES | EC50
CN(C(=O)c1cn2c(-c3ccc4c(cnn4C)c3)cnc2cn1)c1ccc(F)cc1 [Compound 106, N-(4-fluorophenyl)-N-methyl-3-(1-methyl-1H-indazol-5-yl)imidazo[1,2-a]pyrazine-6-carboxamide] | 24 nM
CN(C(=O)c1cn2c(-c3ccc4c(cnn4C)c3)cnc2cn1)c1ccc(F)cc1 [Compound 107, N-(4-fluorophenyl)-N-methyl-3-(1-methyl-1H-indazol-5-yl)imidazo[1,2-a]pyrazine-6-carboxamide] | 218 nM

Same assay, conditions: Plasmodium falciparum, Erythrocyte, 72 h, NF54 or 3D7 infected human erythrocytes, 72 hours; read-out: EC50 (nM), inhibitory efficacy in delaying P. falciparum proliferation in infected human blood cells

SMILES | EC50
CN(C(=O)c1cn2c(-c3ccc(C(F)F)cc3)cnc2cn1)c1ccc(C#N)cn1 [Compound 95, N-(5-cyanopyridin-2-yl)-3-[4-(difluoromethyl)phenyl]-N-methylimidazo[1,2-a]pyrazine-6-carboxamide] | 1050 nM
CN(C(=O)c1cn2c(-c3ccc(C(F)(F)F)cc3)cnc2cn1)c1ccc(Br)nn1 [Compound 96, N-(6-bromopyridazin-3-yl)-N-methyl-3-[4-(trifluoromethyl)phenyl]imidazo[1,2-a]pyrazine-6-carboxamide] | 9990 nM
CN(C(=O)c1cn2c(-c3ccc(C(F)(F)F)cc3)cnc2cn1)c1cnc(Br)cn1 [Compound 97, N-(5-bromopyrazin-2-yl)-N-methyl-3-[4-(trifluoromethyl)phenyl]imidazo[1,2-a]pyrazine-6-carboxamide] | 4510 nM
CN(C(=O)c1cn2c(-c3ccc(C(N)=O)cc3)cnc2cn1)c1ccc(C#N)cn1 [Compound 98, 3-(4-carbamoylphenyl)-N-(5-cyanopyridin-2-yl)-N-methylimidazo[1,2-a]pyrazine-6-carboxamide] | 1500 nM
CN(C(=O)c1cn2c(-c3ccc(C(F)(F)F)cc3)cnc2cn1)c1ccccn1 [Compound 99, N-methyl-N-(pyridin-2-yl)-3-[4-(trifluoromethyl)phenyl]imidazo[1,2-a]pyrazine-6-carboxamide] | 3880 nM
COc1ccc(-c2cnc3cnc(C(=O)N(C)c4ccc(Cl)nc4)cn23)cc1 [Compound 100, N-(6-chloropyridin-3-yl)-3-(4-methoxyphenyl)-N-methylimidazo[1,2-a]pyrazine-6-carboxamide] | 297 nM
CN(C(=O)c1cn2c(-c3ccc(C(F)(F)F)cc3)cnc2cn1)c1ccc(F)cc1 [Compound 101, N-(4-fluorophenyl)-N-methyl-3-[4-(trifluoromethyl)phenyl]imidazo[1,2-a]pyrazine-6-carboxamide] | 33 nM
CN(C(=O)c1cn2c(-c3ccc(OC(F)F)cc3)cnc2cn1)c1ccc(Cl)cc1 [Compound 102, N-(4-chlorophenyl)-3-[4-(difluoromethoxy)phenyl]-N-methylimidazo[1,2-a]pyrazine-6-carboxamide] | 53 nM
CN(C(=O)c1cn2c(-c3ccc(Cl)cc3)cnc2cn1)c1ccc(F)cc1 [Compound 103, 3-(4-chlorophenyl)-N-(4-fluorophenyl)-N-methylimidazo[1,2-a]pyrazine-6-carboxamide] | 51 nM
CN(C(=O)c1cn2c(-c3ccc(C(N)=O)cc3)cnc2cn1)c1ccc(C#N)cc1 [Compound 104, 3-(4-carbamoylphenyl)-N-(4-cyanophenyl)-N-methylimidazo[1,2-a]pyrazine-6-carboxamide] | 57 nM
CN(C(=O)c1cn2c(-c3ccc(C(F)(F)F)cc3)cnc2cn1)c1ccc(F)c(F)c1 [Compound 105, N-(3,4-difluorophenyl)-N-methyl-3-[4-(trifluoromethyl)phenyl]imidazo[1,2-a]pyrazine-6-carboxamide] | 41 nM
Cc1ccc(-c2cnc3cnc(C(=O)N(C)c4ccc(F)cc4)cn23)cc1 [Compound 108, N-(4-fluorophenyl)-N-methyl-3-(4-methylphenyl)imidazo[1,2-a]pyrazine-6-carboxamide] | 110 nM
CN(C(=O)c1cn2c(-c3ccc(Cl)cc3)cnc2cn1)c1ccc(Cl)cc1 [Compound 109, N,3-bis(4-chlorophenyl)-N-methylimidazo[1,2-a]pyrazine-6-carboxamide] | 120 nM
COc1ccccc1N(C)C(=O)c1cn2c(-c3ccc(C(F)(F)F)cc3)cnc2cn1 [Compound 110, N-(2-methoxyphenyl)-N-methyl-3-[4-(trifluoromethyl)phenyl]imidazo[1,2-a]pyrazine-6-carboxamide] | 188 nM
O=C(c1cn2c(-c3ccc(C(F)(F)F)cc3)cnc2cn1)N1CCCc2cc(F)ccc21 [Compound 111, 6-fluoro-1-({3-[4-(trifluoromethyl)phenyl]imidazo[1,2-a]pyrazin-6-yl}carbonyl)-1,2,3,4-tetrahydroquinoline] | 128 nM
CN(C(=O)c1cn2c(-c3ccc(Cl)cc3)cnc2cn1)c1ccc(F)c(F)c1 [Compound 112, 3-(4-chlorophenyl)-N-(3,4-difluorophenyl)-N-methylimidazo[1,2-a]pyrazine-6-carboxamide] | 103 nM
Cc1ccc(-c2cnc3cnc(C(=O)N(C)c4ccc(C#N)cc4)cn23)cc1 [Compound 113, N-(4-cyanophenyl)-N-methyl-3-(4-methylphenyl)imidazo[1,2-a]pyrazine-6-carboxamide] | 81 nM
CCN(C(=O)c1cn2c(-c3ccc(C(F)(F)F)cc3)cnc2cn1)c1ccc(C#N)cc1 [Compound 114, N-(4-cyanophenyl)-N-ethyl-3-[4-(trifluoromethyl)phenyl]imidazo[1,2-a]pyrazine-6-carboxamide] | 76 nM

SMILES | EC50
CC(C)c1ccc(-c2cnc3cnc(C(=O)N(C)c4ccc(C#N)cc4)cn23)cc1 [Compound 115, N-(4-cyanophenyl)-N-methyl-3-[4-(propan-2-yl)phenyl]imidazo[1,2-a]pyrazine-6-carboxamide] | 82 nM
CN(C(=O)c1cn2c(-c3ccc(OC(F)(F)F)cc3)cnc2cn1)c1ccc(C#N)cc1 [Compound 116, -(4-cyanophenyl)-N-methyl-3-[4-(trifluoromethoxy)phenyl]imidazo[1,2-a]pyrazine-6-carboxamide] | 230 nM
CNc1ccc(-c2cnc3cnc(C(=O)N(C)c4ccc(C#N)cc4)cn23)cc1 [Compound 117, N-(4-cyanophenyl)-N-methyl-3-[4-(methylamino)phenyl]imidazo[1,2-a]pyrazine-6-carboxamide] | 92 nM
CN(C(=O)c1cn2c(-c3ccc(C(C)(C)C)cc3)cnc2cn1)c1ccc(C#N)cc1 [Compound 118, 3-(4-tert-butylphenyl)-N-(4-cyanophenyl)-N-methylimidazo[1,2-a]pyrazine-6-carboxamide] | 135 nM
CN(C(=O)c1cn2c(-c3ccc(C(F)(F)F)cc3)cnc2cn1)c1ccccc1F [Compound 119, N-(2-fluorophenyl)-N-methyl-3-[4-(trifluoromethyl)phenyl]imidazo[1,2-a]pyrazine-6-carboxamide] | 507 nM
CN(C(=O)c1cn2c(-c3ccc(C(C)(C)C#N)cc3)cnc2cn1)c1ccc(C#N)cc1 [Compound 120, -[4-(1-cyano-1-methylethyl)phenyl]-N-(4-cyanophenyl)-N-methylimidazo[1,2-a]pyrazine-6-carboxamide] | 147 nM
CN(C)c1ccc(-c2cnc3cnc(C(=O)N(C)c4ccc(F)cc4)cn23)cc1 [Compound 121, 3-[4-(dimethylamino)phenyl]-N-(4-fluorophenyl)-N-methylimidazo[1,2-a]pyrazine-6-carboxamide] | 259 nM
CN(C)c1ccc(-c2cnc3cnc(C(=O)N(C)c4ccc(Cl)cc4)cn23)cc1 [Compound 122, N-(4-chlorophenyl)-3-[4-(dimethylamino)phenyl]-N-methylimidazo[1,2-a]pyrazine-6-carboxamide] | 266 nM
CN(C(=O)c1cn2c(-c3ccc4c(ccn4C)c3)cnc2cn1)c1ccc(C#N)cc1 [Compound 123, N-(4-cyanophenyl)-N-methyl-3-(1-methyl-1H-indol-5-yl)imidazo[1,2-a]pyrazine-6-carboxamide] | 387 nM
CN(C(=O)c1cn2c(-c3ccc(N)cc3)cnc2cn1)c1ccc(C#N)cc1 [Compound 124, 3-(4-aminophenyl)-N-(4-cyanophenyl)-N-methylimidazo[1,2-a]pyrazine-6-carboxamide] | 217 nM
CN(C(=O)c1cn2c(-c3ccc(-c4ccco4)cc3)cnc2cn1)c1ccc(C#N)cc1 [Compound 125, N-(4-cyanophenyl)-3-[4-(furan-2-yl)phenyl]-N-methylimidazo[1,2-a]pyrazine-6-carboxamide] | 369 nM
CN(C(=O)c1cn2c(-c3ccc(C(F)(F)F)cc3)cnc2cn1)c1ccc(C#N)c(F)c1 [Compound 126, N-(4-cyano-3-fluorophenyl)-N-methyl-3-[4-(trifluoromethyl)phenyl]imidazo[1,2-a]pyrazine-6-carboxamide] | 125 nM
CN(C(=O)c1cn2c(-c3ccc4c(ccn4C)c3)cnc2cn1)c1ccc(F)c(F)c1 [Compound 127, N-(3,4-difluorophenyl)-N-methyl-3-(1-methyl-1H-indol-5-yl)imidazo[1,2-a]pyrazine-6-carboxamide] | 236 nM
CS(=O)(=O)c1ccc(NC(=O)c2cn3c(-c4ccc(C(F)(F)F)cc4)cnc3cn2)cc1 [Compound 128, N-(4-methanesulfonylphenyl)-3-[4-(trifluoromethyl)phenyl]imidazo[1,2-a]pyrazine-6-carboxamide] | > 10000 nM
CN(C(=O)c1cn2c(-c3ccc(S(C)(=O)=O)cc3)cnc2cn1)c1ccc(C#N)cc1 [Compound 129, N-(4-cyanophenyl)-3-(4-methanesulfonylphenyl)-N-methylimidazo[1,2-a]pyrazine-6-carboxamide] | 800 nM
COC(C)c1ccc(-c2cnc3cnc(C(=O)N(C)c4ccc(C#N)cc4)cn23)cc1 (stereo not shown) [Compound 130, N-(4-cyanophenyl)-3-[4-(1-methoxyethyl)phenyl]-N-methylimidazo[1,2-a]pyrazine-6-carboxamide] | 176 nM
CN(C(=O)c1cn2c(-c3ccc(-c4ccn[nH]4)cc3)cnc2cn1)c1ccc(S(C)(=O)=O)cc1 [Compound 131, N-(4-methanesulfonylphenyl)-N-methyl-3-[4-(1H-pyrazol-5-yl)phenyl]imidazo[1,2-a]pyrazine-6-carboxamide] | 140 nM
